Data as given in publication PMC11719499 (International Journal of Molecular Sciences, 2024).
Entries after “also recorded” stand apart in the source; their conditions may differ.

How the values were obtained:
[1] = for Prediction of penetration to the CNS: class from logPe in PAMPA-BBB; for BBB permeability (in words): PAMPA-BBB
Experimental: We used the parallel artificial membrane permeability assay for BBB (PAMPA-BBB) to determine the brain permeability of compounds 1 and 12 [22]. The compounds 1 and 12 were prepared with methyl alcohol at the concentration of 4 mg/mL. These were diluted with PBS (Phosphate Buffer Saline; pH = 7.4) to obtain the donor solutions 100 μg/mL PAMPA “sandwich”, consisting of a donor 96-well microliter plate and matching filter plate coated with 5 μL of 2% lecithin/dodecane. Compounds 1 and 12 were added to the wells (150 μL/well) of the pre-coated filter, and PBS was added to the wells (300 μL/well) of the receiver plate. The filter plate was coupled with the receiver plate, and the plate couple was incubated in the thermostat at 37 °C for 16 h. After incubation, the plates were separated, and the samples from each well of both the filter plate and the receiver plate were sucked out and analyzed by HPLC.

[2] = system: HM mCherry-GFP-LC3 cells; test: Autophagic flux assay by flow cytometry in HM mCherry-GFP-LC3 cells; type: cell-based, human; conditions: compounds at 10 µM and 40 µM, 24 h, compared to control
Experimental: Consequently, the autolysosomes manifest red fluorescence. Consequently, the red fluorescence observed in the cells can be used as a marker for the formation of autolysosomes. The extent of red fluorescence can be used as an indicator of the efficiency of the flux from the autophagosome to the autolysosome. The bioactivity of all compounds on autophagic flux was evaluated using HM mCherry-GFP-LC3 cells by flow cytometry. In summary, the HM mCherryGFP-LC3 cells were cultured in 12-well plates for 24 h in DMEM (Dulbecco’s modified Eagle medium) supplemented with 10% fetal bovine serum (Gibco-BRL, 10099–141, Gaithersburg, MD, USA) in a 37 ◦C incubator with 5% CO2 at 95% humidity. Subsequently, the compounds were introduced directly to the culture medium, resulting in final concentrations of 10 µM and 40 µM. Rapamycin was used as a positive control. Twenty-four hours following the administration of the treatment, the cells were harvested and fixed using 4% paraformaldehyde (PFA). […] The data were analyzed using the FlowJo software v10 (BD Biosciences, Franklin Lakes, NJ, USA).
Data analyses were carried out by using GraphPad Prism 8 (GraphPad Software, Inc., La Jolla, CA, USA). The one-way ANOVA (analysis of variance) was performed using Dunnett’s post hoc test for comparison between the treated group and control group, and the values were expressed as mean ± standard deviation (SD). […]

| SMILES | Prediction of penetration to the CNS [1] | BBB permeability (in words) [1] | bioactivity towards autophagic flux [2] |
| --- | --- | --- | --- |
| NC(=O)N1c2ccccc2C=Cc2ccccc21 [Carbamazepine, carbamazepine, reference compound] | CNS ++ (++ is logPe > −5.0) |  |  |
| C=C1C(OC(=O)C(C)C)C(O)C(OC(=O)c2ccccc2)C(C)(C)C=CC(C)C(OC(C)=O)C2(O)CC(C)(OC(C)=O)C(OC(=O)c3ccccc3)C2C1OC(C)=O (centres unmarked) [Compound 1, Euphjatrophane H] | CNS ++ (++ is logPe > −5.0) | relatively high BBB permeability; also recorded: ability to penetrate the blood–brain barrier (BBB) | most promising activity; also recorded: significant activity on autophagic flux |
| C=C1[C@H](OC(=O)/C(C)=C/C)[C@@H](OC(C)=O)[C@@H](OC(C)=O)C(C)(C)/C=C/[C@H](C)[C@@H](OC(C)=O)[C@@]2(O)C[C@@](C)(OC(C)=O)[C@H](OC(=O)c3ccccc3)[C@@H]2[C@H]1OC(C)=O [Compound 12, euphpepluone F] | CNS + (+ is logPe > −6.0) | relatively high BBB permeability; also recorded: ability to penetrate the blood–brain barrier (BBB) | most promising activity; also recorded: significant activity on autophagic flux |
| CC(C)NCC(O)COc1cccc2ccccc12 (centres unmarked) [Propranolol, propranolol, reference compound] | CNS ++ (++ is logPe > −5.0) |  |  |
